Results: patent publication US12226414B2, “1-isopropyl-3-methyl-8-(pyridin-3-yl)-1,3-dihydro-2H-imidazo[4,5-c] cinnolin-2-one as selective modulators of ataxia telangiectasia mutated (ATM) kinase and uses thereof” (SUZHOU ZANRONG PHARMA LIMITED, priority 2018, dated 2025)

Key:
[1] = target: P-glycoprotein (Pgp) (Homo sapiens (Human), UniProt P08183); experiment: MDCK-MDR1 Pgp assessment
Description: Efflux transport mediated by P-glycoprotein (Pgp) was assessed by MDCK-MDR1 cells. The final concentrations of test compounds and control compound were at 1 μM. The multiwell insert plate was incubated at 37° C. for 2 hours.

[2] = target: hERG channel (Homo sapiens (Human), UniProt Q12809); experiment: hERG safety assessment, manual patch clamp; details: for hERG inhibition @10 μM: HEK 293 cells stably expressing hERG
Description: Inhibition of hERG channel was conducted in HEK 293 cell line stably expressing hERG channel by manual patch clamp.

[3] = target: T1, aldehyde oxidase (AO) (Homo sapiens (Human), UniProt Q06278); experiment: in vitro; details: human liver cytosol
[4] = target: T1, aldehyde oxidase (AO); experiment: Aldehyde oxidase assay in human liver cytosol; details: human liver cytosol 1 mg/mL, 0.5 μM compound
[5] = humans; cited from earlier work
[6] = target: ATM in SN38 treated HT-29 cells (Homo sapiens (Human), UniProt Q13315); experiment: ATM SN-38 HT-29 cellular potency assay
Description: Inhibition of ATM was evaluated in SN38 treated HT-29 cells (ATCC, Cat #HTB-38) by high-Content Imaging System
HT-29 cells were trypsinized and approximately 10,000 cells were seeded per well to 96-well microplates which were incubated overnight at 37° C. and 5% CO2. Test compounds were added to the 96-well plates which were incubated at 37° C. and 5% CO2 for 1 hour. […] After the plates were rinsed 3 times with PBSA, 50 μl permeabilization buffer (0.1% Triton-X 100 in PBSA) was added and the plates were incubated for 20 minutes at room temperature. After the plates were rinsed once with PBSA, 50 μl primary antibody solution was added and the plates were incubated in at 4° C. overnight. […] The plates were rinsed with PBST 3 times and then 100 μl PBSA were added per well. The plates were sealed with black plate seals.

[7] = target: BCRP (Homo sapiens (Human), UniProt Q9UNQ0); experiment: Caco-2 BCRP assessment; format: in vitro ADME; details: −inhibitor/+inhibitor (novobiocin 30 μM)
Source text: Caco-2 cells was used to study efflux transport mediated by BCRP.

[8] = target: ATM (Homo sapiens (Human), UniProt Q13315); experiment: ATM biochemical potency assay
Description: The plate was incubated at room temperature for 10 minutes. […] Data was collected by Caliper.

Chain of hERG channel (Q12809 whole entry): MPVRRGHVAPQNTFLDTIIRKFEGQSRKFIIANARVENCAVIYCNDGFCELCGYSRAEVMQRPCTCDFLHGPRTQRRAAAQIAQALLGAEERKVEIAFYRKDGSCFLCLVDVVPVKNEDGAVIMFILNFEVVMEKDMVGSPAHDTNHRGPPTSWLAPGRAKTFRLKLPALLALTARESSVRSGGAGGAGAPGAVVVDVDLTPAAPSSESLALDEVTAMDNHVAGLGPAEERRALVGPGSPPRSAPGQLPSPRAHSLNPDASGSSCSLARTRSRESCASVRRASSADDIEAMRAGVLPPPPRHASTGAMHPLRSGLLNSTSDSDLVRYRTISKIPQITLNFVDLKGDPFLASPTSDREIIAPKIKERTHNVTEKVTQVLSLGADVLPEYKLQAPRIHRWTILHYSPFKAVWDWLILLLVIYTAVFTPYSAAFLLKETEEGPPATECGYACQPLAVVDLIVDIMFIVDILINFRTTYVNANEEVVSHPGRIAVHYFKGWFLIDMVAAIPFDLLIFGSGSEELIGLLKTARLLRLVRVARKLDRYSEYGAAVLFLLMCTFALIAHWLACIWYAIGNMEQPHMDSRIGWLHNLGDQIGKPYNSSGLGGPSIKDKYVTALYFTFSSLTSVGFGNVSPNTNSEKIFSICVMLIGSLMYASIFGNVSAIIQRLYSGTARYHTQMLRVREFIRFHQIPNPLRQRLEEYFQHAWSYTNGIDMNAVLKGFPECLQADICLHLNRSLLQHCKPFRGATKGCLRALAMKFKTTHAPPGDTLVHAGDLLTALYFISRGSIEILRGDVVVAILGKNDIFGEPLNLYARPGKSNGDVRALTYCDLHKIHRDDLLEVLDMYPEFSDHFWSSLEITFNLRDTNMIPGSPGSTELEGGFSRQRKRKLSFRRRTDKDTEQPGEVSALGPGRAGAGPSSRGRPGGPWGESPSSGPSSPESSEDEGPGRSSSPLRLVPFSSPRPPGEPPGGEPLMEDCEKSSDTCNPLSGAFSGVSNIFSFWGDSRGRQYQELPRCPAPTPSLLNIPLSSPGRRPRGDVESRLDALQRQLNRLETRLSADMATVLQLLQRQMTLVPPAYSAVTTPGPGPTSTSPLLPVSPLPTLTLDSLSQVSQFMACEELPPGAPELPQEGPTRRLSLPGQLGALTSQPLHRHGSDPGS
T1 sequence (Q06278 whole entry): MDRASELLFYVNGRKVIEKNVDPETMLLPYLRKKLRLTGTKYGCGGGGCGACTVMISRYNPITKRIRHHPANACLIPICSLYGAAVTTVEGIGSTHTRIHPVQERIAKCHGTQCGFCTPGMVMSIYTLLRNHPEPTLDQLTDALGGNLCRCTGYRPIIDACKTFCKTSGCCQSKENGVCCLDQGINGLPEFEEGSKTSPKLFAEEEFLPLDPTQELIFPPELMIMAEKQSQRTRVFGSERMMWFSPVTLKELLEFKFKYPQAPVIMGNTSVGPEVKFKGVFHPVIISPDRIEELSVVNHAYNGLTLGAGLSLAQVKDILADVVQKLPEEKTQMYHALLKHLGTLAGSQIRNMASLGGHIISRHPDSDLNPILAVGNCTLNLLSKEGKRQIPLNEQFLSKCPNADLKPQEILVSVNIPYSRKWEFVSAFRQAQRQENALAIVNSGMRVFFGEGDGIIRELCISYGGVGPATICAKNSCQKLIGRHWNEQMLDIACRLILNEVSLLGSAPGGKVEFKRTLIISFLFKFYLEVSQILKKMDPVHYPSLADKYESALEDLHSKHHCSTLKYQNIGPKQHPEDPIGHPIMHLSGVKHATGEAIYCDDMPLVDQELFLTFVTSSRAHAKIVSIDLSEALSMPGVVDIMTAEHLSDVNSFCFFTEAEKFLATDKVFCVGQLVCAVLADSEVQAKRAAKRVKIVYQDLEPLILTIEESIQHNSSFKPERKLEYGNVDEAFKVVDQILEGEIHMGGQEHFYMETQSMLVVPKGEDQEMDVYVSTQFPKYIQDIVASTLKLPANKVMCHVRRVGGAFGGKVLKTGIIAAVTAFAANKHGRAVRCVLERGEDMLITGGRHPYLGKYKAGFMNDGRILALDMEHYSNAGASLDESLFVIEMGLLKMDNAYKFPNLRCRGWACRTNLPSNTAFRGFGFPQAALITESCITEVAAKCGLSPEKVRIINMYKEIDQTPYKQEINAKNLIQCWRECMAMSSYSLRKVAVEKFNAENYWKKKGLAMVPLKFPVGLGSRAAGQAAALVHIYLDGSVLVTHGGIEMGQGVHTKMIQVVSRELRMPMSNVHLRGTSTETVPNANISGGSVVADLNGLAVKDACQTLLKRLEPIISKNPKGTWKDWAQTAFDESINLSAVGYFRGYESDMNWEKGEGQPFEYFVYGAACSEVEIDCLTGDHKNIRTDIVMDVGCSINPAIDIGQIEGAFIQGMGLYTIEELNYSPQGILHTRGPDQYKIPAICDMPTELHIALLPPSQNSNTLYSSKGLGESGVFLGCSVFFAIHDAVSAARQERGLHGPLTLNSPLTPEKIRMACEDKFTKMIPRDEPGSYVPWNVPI
Chain of P-glycoprotein (Pgp) (P08183 whole entry): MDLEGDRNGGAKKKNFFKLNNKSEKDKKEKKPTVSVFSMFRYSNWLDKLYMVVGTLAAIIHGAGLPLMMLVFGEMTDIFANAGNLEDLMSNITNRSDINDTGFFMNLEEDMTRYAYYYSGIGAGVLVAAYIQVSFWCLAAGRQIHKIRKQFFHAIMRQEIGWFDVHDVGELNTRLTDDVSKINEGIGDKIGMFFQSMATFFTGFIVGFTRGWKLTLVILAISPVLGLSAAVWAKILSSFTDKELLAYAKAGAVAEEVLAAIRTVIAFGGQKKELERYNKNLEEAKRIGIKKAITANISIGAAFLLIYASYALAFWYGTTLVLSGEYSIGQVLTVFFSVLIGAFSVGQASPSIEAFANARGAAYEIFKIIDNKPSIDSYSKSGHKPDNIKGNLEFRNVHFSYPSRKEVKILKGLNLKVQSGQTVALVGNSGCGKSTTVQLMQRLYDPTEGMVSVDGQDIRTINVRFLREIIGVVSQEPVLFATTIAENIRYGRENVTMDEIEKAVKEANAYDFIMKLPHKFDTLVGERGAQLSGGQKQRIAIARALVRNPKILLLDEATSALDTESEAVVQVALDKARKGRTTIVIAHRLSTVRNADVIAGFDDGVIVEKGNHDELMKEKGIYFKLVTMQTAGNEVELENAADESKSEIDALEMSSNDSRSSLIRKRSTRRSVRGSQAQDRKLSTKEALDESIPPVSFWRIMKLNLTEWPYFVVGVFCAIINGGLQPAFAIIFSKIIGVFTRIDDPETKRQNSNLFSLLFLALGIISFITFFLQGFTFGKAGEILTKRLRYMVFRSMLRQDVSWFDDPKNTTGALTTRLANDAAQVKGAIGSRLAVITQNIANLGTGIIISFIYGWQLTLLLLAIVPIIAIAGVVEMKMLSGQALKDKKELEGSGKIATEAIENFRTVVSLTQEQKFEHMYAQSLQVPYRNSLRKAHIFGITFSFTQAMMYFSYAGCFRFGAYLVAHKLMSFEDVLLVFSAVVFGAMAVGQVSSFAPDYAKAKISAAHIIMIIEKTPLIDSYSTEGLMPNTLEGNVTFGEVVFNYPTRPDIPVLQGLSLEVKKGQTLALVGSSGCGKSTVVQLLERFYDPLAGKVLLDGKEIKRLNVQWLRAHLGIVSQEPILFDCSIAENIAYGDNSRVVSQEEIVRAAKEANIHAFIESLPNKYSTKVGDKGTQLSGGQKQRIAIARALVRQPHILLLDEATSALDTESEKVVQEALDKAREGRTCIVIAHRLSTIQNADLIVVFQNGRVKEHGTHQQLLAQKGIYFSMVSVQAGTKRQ
Chain of BCRP (Q9UNQ0 whole entry): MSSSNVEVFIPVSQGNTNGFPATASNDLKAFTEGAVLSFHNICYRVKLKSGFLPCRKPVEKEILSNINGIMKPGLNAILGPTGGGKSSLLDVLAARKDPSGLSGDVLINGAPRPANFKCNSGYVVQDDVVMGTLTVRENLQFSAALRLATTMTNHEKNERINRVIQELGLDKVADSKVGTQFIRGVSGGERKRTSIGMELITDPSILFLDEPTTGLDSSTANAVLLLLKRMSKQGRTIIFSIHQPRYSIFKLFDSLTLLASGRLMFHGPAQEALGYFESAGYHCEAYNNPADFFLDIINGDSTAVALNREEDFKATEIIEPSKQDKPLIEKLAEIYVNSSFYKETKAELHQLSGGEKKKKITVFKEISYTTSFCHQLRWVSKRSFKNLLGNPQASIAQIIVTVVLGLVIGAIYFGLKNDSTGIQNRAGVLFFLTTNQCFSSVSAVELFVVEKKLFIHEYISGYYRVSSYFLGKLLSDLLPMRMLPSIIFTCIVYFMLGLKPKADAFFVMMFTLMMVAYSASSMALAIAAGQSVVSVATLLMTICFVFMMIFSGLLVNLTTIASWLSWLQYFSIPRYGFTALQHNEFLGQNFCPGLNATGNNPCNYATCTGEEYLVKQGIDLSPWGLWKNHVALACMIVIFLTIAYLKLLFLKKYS

SMILES | Pgp substrate (in words) [1] | hERG liability (in words) [2] | hERG inhibition @10 μM [2] [%] | microsomal CLint at 0.5 μM [3] [µL/min/mg] | AO intrinsic clearance [4] [μL/min/mg protein] | clearance as % liver blood flow [5] [% liver blood flow] | IC50 [6] [nM] | efflux ratio at 2 h, 1 μM [7] | IC50 [8] [nM] | efflux ratio at 2 h, 1 μM ([1]; human)
CC(C)n1c(=O)n(C)c2cnc3cc(F)c(-c4ccc(OCCCN5CCCCC5)nc4)cc3c21 [Ref. Comp. 3, AZD1390] | not a Pgp substrate | significant hERG inhibition | 79 | – | – | – | – | – | – | –
CCN(C(C)=O)c1cccc(-c2ccnc3c(C#N)cnn23)c1 [Ref. Comp. 4, N-[3-(3-cyanopyrazolo[1,5-a]pyrimidin-7-yl)phenyl]-N-ethylacetamide] | – | – | – | 3.1 | 3.1 | ~80 | – | – | – | –
CN(C)CCCOc1ccc(-c2ccc3nnc4c(c3c2)n(C2CCOCC2)c(=O)n4C)cn1 [compound 1, 8-[6-(3-dimethylamino-propoxy)-pyridin-3-yl]-3-methyl-1-(tetrahydro-2H-pyran-4-yl)-1H-imidazo[4,5-c]cinnolin-2(3H)-one] | – | – | 58 | – | – | – | 112 | 0.62 | 2.9 | 5.6
